Test results as given in patent publication US20260048047A1, “SMALL-MOLECULE ACTIVATORS OF MYCOBACTERIUM TUBERCULOSIS ADENYLYL CYCLASE” (priority 2022, published 2026).

Test system: M. tuberculosis
Assay: Extracellular activity against M. tuberculosis in cholesterol media (Alamar Blue reduction assay)
Assay type: cell-based, Mycobacterium tuberculosis
Details: Mycobacterium tuberculosis, 240 h, 7H12-Cholesterol media, 10 days; read-out: Cholesterol broth: alamar blue--EC50

SMILES | EC50 [µM]
Cc1nonc1CC(=O)N1CCC(n2cc(C(=O)NCCO)nn2)CC1 [Compound 150, N-(2-hydroxyethyl)-1-(1-(2-(4-methyl-1,2,5-oxadiazol-3-yl)acetyl)piperidin-4-yl)-1H-1,2,3-triazole-4-carboxamide] | > 10
Cc1nonc1CS(=O)(=O)N1CCC(c2nc(-c3ccc(F)cc3)no2)CC1 [Compound 151, 3-(4-fluorophenyl)-5-(1-(((4-methyl-1,2,5-oxadiazol-3-yl)methyl)sulfonyl)piperidin-4-yl)-1,2,4-oxadiazole] | > 10
Cc1nonc1NC(=O)N1CCC(c2nc(-c3ccc(F)cc3)no2)CC1 [Compound 152, 4-(3-(4-fluorophenyl)-1,2,4-oxadiazol-5-yl)-N-(4-methyl-1,2,5-oxadiazol-3-yl)piperidine-1-carboxamide] | 0.653
Cn1cnc(CC(=O)N2CCC(c3nc(-c4ccc(Cl)c(Cl)c4)no3)CC2)n1 [Compound 153, 1-(4-(3-(3,4-dichlorophenyl)-1,2,4-oxadiazol-5-yl)piperidin-1-yl)-2-(1-methyl-1H-1,2,4-triazol-3-yl)ethan-1-one] | > 10
Cn1cnc(CC(=O)N2CCC(c3nc(-c4ccc(F)cc4)no3)CC2)n1 [Compound 154, 1-(4-(3-(4-fluorophenyl)-1,2,4-oxadiazol-5-yl)piperidin-1-yl)-2-(1-methyl-1H-1,2,4-triazol-3-yl)ethan-1-one] | > 10
Cn1cnnc1CC(=O)N1CCC(c2nc(-c3ccc(F)cc3)no2)CC1 [Compound 155, 1-(4-(3-(4-fluorophenyl)-1,2,4-oxadiazol-5-yl)piperidin-1-yl)-2-(4-methyl-4H-1,2,4-triazol-3-yl)ethan-1-one] | > 10
Cn1cnnc1CC(=O)N1CCC(n2nnc(-c3ccc(F)cc3)n2)CC1 [Compound 156, 1-(4-(5-(4-fluorophenyl)-2H-tetrazol-2-yl)piperidin-1-yl)-2-(4-methyl-4H-1,2,4-triazol-3-yl)ethan-1-one] | > 10
Cn1ncnc1CC(=O)N1CCC(c2nc(C3CC4CCC3C4)no2)CC1 (centres unmarked) [Compound 157, 1-(4-(3-(bicyclo[2.2.1]heptan-2-yl)-1,2,4-oxadiazol-5-yl)piperidin-1-yl)-2-(1-methyl-1H-1,2,4-triazol-5-yl)ethan-1-one] | 1.86
Cn1ncnc1CC(=O)N1CCC(c2nc([C@@H]3CC[C@@](C)(F)C3)no2)CC1 [Compound 158, 1-(4-(3-((1R,3R)-3-fluoro-3-methylcyclopentyl)-1,2,4-oxadiazol-5-yl)piperidin-1-yl)-2-(1-methyl-1H-1,2,4-triazol-5-yl)ethan-1-one] | > 10
Cn1ncnc1CC(=O)N1CCC(c2nc([C@@H]3CC[C@](C)(F)C3)no2)CC1 [Compound 159, 1-(4-(3-((1R,3S)-3-fluoro-3-methylcyclopentyl)-1,2,4-oxadiazol-5-yl)piperidin-1-yl)-2-(1-methyl-1H-1,2,4-triazol-5-yl)ethan-1-one] | > 10
Cn1ncnc1CC(=O)N1CCC(c2nc(C3CCC(C)(F)CC3)no2)CC1 (centres unmarked) [Compound 160, 1-(4-(3-(4-fluoro-4-methylcyclohexyl)-1,2,4-oxadiazol-5-yl)piperidin-1-yl)-2-(1-methyl-1H-1,2,4-triazol-5-yl)ethan-1-one] | > 10
Cn1ncnc1CC(=O)N1CCC(c2noc(C34CC(C)(C3)C4)n2)CC1 [Compound 161, 2-(1-methyl-1H-1,2,4-triazol-5-yl)-1-(4-(5-(3-methylbicyclo[1.1.1]pentan-1-yl)-1,2,4-oxadiazol-3-yl)piperidin-1-yl)ethan-1-one] | > 10
Cn1ncnc1CC(=O)N1CCC(c2nc(C34CC(C)(C3)C4)no2)CC1 [Compound 162, 2-(1-methyl-1H-1,2,4-triazol-5-yl)-1-(4-(3-(3-methylbicyclo[1.1.1]pentan-1-yl)-1,2,4-oxadiazol-5-yl)piperidin-1-yl)ethan-1-one] | > 10
Cn1ncnc1CC(=O)N1CCC(c2nc(-c3ccc(Cl)cc3Cl)no2)CC1 [Compound 163, 1-(4-(3-(2,4-dichlorophenyl)-1,2,4-oxadiazol-5-yl)piperidin-1-yl)-2-(1-methyl-1H-1,2,4-triazol-5-yl)ethan-1-one] | 0.2
